Results published in patent publication US20220233523A1, “ANTIBIOTIC POTENTIATION FOR NONTUBERCULOUS MYCOBACTERIAL DISEASE” (priority 2019, published 2022).

What was measured:
[1] = tested on: planktonic cultures of MAH104; assay: Growth of planktonic cultures in non-supplemented 7H9 with metabolites; assay type: cell-based, Mycobacterium avium subsp hominissuis 104 (MAH104); conditions: propionic acid and butyric acid at 0.05%, glycerol 0.2%; 12 days at 37° C.
Experimental: MAH104 from 7H10 agar was used to make bacterial suspension in deionized water (10^9 CFU/ml) and then the suspension was centrifuged three times to wash the bacteria cells (3500 rpm for 20 minutes at 20° C.). After washing step, the bacterial suspensions were resuspended in 7H9 medium and suspensions were left alone to allow clumped bacteria to settle. The top half of the suspension was transferred to new tube and adjusted to 1×10^8 CFU/ml, using visual turbidity and optical density. […] These cultures were incubated at 37° C. for 12 days and the O.D.595 nm was measured at each 72 hours.
We determined the optimal concentration for the growth of MAH104 in non-supplemented 7H9 media since the amounts of these metabolites available in Biolog plates are unknown. […] The experiments were made in non-supplemented 7H9 medium (without any carbon sources: no OADC, no glycerol, and no tween 20 or 80) (FIG. 2A-C), which is the condition applied in the biofilms assay.

MAH 3388 biofilm = assay: Amikacin with short-chain fatty acids on biofilm of lung isolate MAH 3388; assay type: cell-based; conditions: for CFU/mL, MAH 3388: amikacin concentration: 4 mg/ml, untreated 9.4 +/− 0.2 × 10^7; for activity to potentiate Amikacin activity: biofilms of MAH 3388
Experimental: As a negative control, biofilms were incubated only with non-supplemented 7H9 without any antibiotics. […] Subsequently, 100 μl of 0.02% of Triton X-100 (final concentration 0.01%) was added to the established biofilms to mix, dilute and perform CFU analysis with the entire population of biofilms (attached and unattached).
Biofilms were established from an MAH strain isolated from the lungs of a patient (MAH 3388).

MAH 3393 biofilm = assay: Amikacin with short-chain fatty acids on biofilm of lung isolate MAH 3393; assay type: cell-based; conditions: amikacin concentration: 4 mg/ml; untreated 1.0 +/− 0.8 × 10^8
MAH104 biofilms = assay type: cell-based, Mycobacterium avium subsp hominissuis 104 (MAH104); conditions: O.D.590 nm, biofilm vs planktonic
Experimental: Metabolic phenotype study was performed with planktonic and biofilm cultures using the 96-well plates PM1 and PM2A (BIOLOG™, Hayward, Calif.). The assays with planktonic cells and biofilms were made at the same time. Each plate contains carbon substrates and one negative control well, in which the bacteria is tested without any substrate. The tests with planktonic and biofilm cultures were performed at the same time and the culture inoculum have the same number of passages. […] The experiments were made as an end-point assay.
The cultures of biofilms were established for 7 days in regular polystyrene 96 well plates, not in PM Biolog plates, as described above with a minor difference. […] (total of 14 days of biofilm incubated at 37° C.). To obtain spectrophotometric measurements from biofilm cultures (O.D.590 nm), the plate was centrifuged for 20 minutes at 3500 rpm at 20° C., which reduce bacteria interference with the readings, and biofilm supernatant was transferred to a new 96 well plates for O.D.590 nm measurement.
Experiments were performed three times as an end-point assay. If planktonic and/or biofilm cultures were able to metabolize a specific metabolite substrate, electrons from NADH reduce the Redox dye in an irreversible reaction that generates a purple color in the PM plate wells. The signal (+) and (−) indicates, respectively, whether a purple color was produced or not. Abiotic reductions of the Redox dye were assessed through adding bacteria-free GN/GP-IF-0a fluid in the wells. Negative control corresponds to the wells without any metabolic substrate.

SMILES: CCCC(=O)O [Butyric acid]
- growth of planktonic MAH104 in non-supplemented 7H9 [1]: able to grow
- CFU/mL, MAH 3388 (MAH 3388 biofilm): 9.7 +/− 0.6 × 10^7 CFU/mL
- activity to potentiate Amikacin activity (MAH 3388 biofilm): confirmed
- CFU/mL, MAH 3393 (MAH 3393 biofilm): 6.2 +/− 0.7 × 10^7 CFU/mL

SMILES: OCC(O)CO [Glycerol]
- lower capacity of biofilms to use the substrate compared with planktonic cultures (MAH104 biofilms): 11.14 fold
- growth of planktonic MAH104 in non-supplemented 7H9 [1]: able to support MAH104 growth

SMILES: CCC(=O)O [Propionic acid]
- lower capacity of biofilms to use the substrate compared with planktonic cultures (MAH104 biofilms): 5.49 fold
- growth of planktonic MAH104 in non-supplemented 7H9 [1]: able to grow
- CFU/mL, MAH 3388 (MAH 3388 biofilm): 9.6 +/− 0.4 × 10^7 CFU/mL
- activity to potentiate Amikacin activity (MAH 3388 biofilm): confirmed
- CFU/mL, MAH 3393 (MAH 3393 biofilm): 1.7 +/− 0.4 × 10^7 CFU/mL
